Data on four molecules can be found in article PMC3829422, “Conformational Plasticity and Ligand Binding of Bacterial Monoacylglycerol Lipase” (The Journal of Biological Chemistry, 2013).

Common to all, as to experiment: X-ray crystal structure, […] A
Type in all cases: binding

Assay [1] concerns the target T1, bMGL (Bacillus sp. H-257, UniProt P82597).
T1 construct: cap Asn-120-Thr-164; catalytic triad Ser-97, Asp-196, His-226
T1 sequence (P82597 1-250): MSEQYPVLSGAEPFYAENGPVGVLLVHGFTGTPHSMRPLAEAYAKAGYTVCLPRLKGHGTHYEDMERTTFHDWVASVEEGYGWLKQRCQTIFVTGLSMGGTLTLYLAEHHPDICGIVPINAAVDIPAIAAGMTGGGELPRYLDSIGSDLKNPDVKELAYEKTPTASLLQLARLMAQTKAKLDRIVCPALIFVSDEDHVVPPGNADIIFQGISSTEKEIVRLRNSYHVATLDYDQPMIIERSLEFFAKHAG
The conditions noted are these: covalent; Ser-97 phosphonate adduct, 4-nitrophenol released; citric acid pH 5.0.

The target in assay [2] is T1, bMGL. The following applies: covalent; Ser-97 phosphonate adduct, 4-nitrophenol released; MES/imidazole pH 6.5.
Assay [3] deals with T2, bMGL (Bacillus sp. H-257, UniProt P82597, D196N).
T2 construct: cap Asn-120-Thr-164; catalytic triad Ser-97, Asp-196, His-226
T2 sequence (P82597 1-250 D196N): T1 sequence (P82597 1-250) with D196N
The following applies: inactive variant; co-crystallised and soaked; HEPES pH 6.9; active site, chain A only; noncovalent.

Assay [4] addresses T1, bMGL. The conditions noted are these: covalent; Ser-97 phosphonate adduct, 4-nitrophenol released; citric acid pH 5.2.

Numbering of substitutions follows the chain as printed.

Consider `CCCCCCCCCCCCCCCCOP(=O)(CCCN=[N+]=[N-])Oc1ccc([N+](=O)[O-])cc1` (stereo not shown) [C16 ligand], for which, at bMGL [1], the “X-ray crystal structure, 2.2 A” value is on record as “electron densities for the ligands bound to active site residue Ser-97 were observed”.
Regarding `CCCCCCCCCCCCOP(=O)(CCCN=[N+]=[N-])Oc1ccc([N+](=O)[O-])cc1` (stereo not shown) [C12 ligand, dodecyl 4-nitrophenyl (3-azidopropyl)phosphonate], the “X-ray crystal structure, 1.7 A” value at bMGL [2] is “both had the C12 ligand covalently bound in the active site”.
On to `CCCCCCCCCCCC(=O)OCC(O)CO` (racemic) [1-LG, 1-lauroylglycerol], for which the “X-ray crystal structure, 2.8 A” value at bMGL [3] was “we only interpreted the electron density of the bMGL(D196N)-1-LG crystal in chain A as substrate”.
Turning to `CCCCCCCCCCCCCCOP(=O)(CCCN=[N+]=[N-])Oc1ccc([N+](=O)[O-])cc1` (stereo not shown) [C14 ligand], the “X-ray crystal structure, 1.85 A” value at bMGL [4] was “electron densities for the ligands bound to active site residue Ser-97 were observed”.
